# System: HeLa cells
# Assay: Cell-based pharmacodynamic assay (CellTiter-Glo proliferation inhibition), HeLa
# Conditions: human cervical cancer HeLa cells; 72 hours incubation; CellTiter-Glo luminescence; read-out: IC50 against HeLa cells
# Protocol: Complete media such as RPMI 1640 (Gibco, A1049101), EMEM (ATCC, 30-2003), DMEM (Gibco, C11995500CP), McCoy's 5A (Gibco, 16600082), and F-12K (ATCC, 30-2004) were prepared by supplementing with varying concentrations of FBS (Biological Industries, 04-002-1A) and 1% Penicillin-Streptomycin (Gibco, 15140122) and was thoroughly mixed. Tumor cell lines including HeLa (ATCC, CCL-2; EMEM + 10% FBS), TOV-21G (Cobioer, CBP60292; 1:1 mixture of MCDB 105 and Medium 199 + 15% FBS), OVCAR-3 (ATCC, HTB-161; RPMI 1640 + 20% FBS + 0.01 mg/ml bovine insulin), SK-OV-3 (ATCC, HTB-77; McCoy's 5A + 10% FBS), A2780 (Cobioer, CBP60283; RPMI 1640 + 10% FBS), OC316 (Cobioer, CBP60620; RPMI 1640 + 10% FBS), HuH-7 (Cobioer, CBP60202; DMEM + 10% FBS), SNU-398 (ATCC, CRL-2233; RPMI 1640 + 10% FBS), NCI-H2286 (ATCC, CRL-5938; RPMI 1640 + 5% FBS), NCI-H82 (ATCC, HTB-175; RPMI 1640 + 10% FBS), A549 (ATCC, CCL-185; F-12K + 10% FBS), SK-MEL-3 (ATCC, HTB-69; McCoy's 5A + 15% FBS), PSN-1 (Cobioer, CBP61215; RPMI 1640 + 10% FBS), LoVo (ATCC, CCL-229; F-12K + 10% FBS), DLD-1 (ATCC, CCL-221; RPMI 1640 + 10% FBS), HCT-15 (ATCC, CCL-225; RPMI 1640 + 10% FBS), A498 (ATCC, HTB-44; EMEM + 10% FBS), LNCaP (ATCC, CRL-1740; RPMI 1640 + 10% FBS), SNU-1 (ATCC, CRL-5971; RPMI 1640 + 10% FBS), SCC-9 (Cobioer, CBP60428; DMEM/F12 (1:1) + 10% FBS + 0.5 mM sodium pyruvate + 400 ng/ml hydrocortisone), SU-DHL-5 (ATCC, CRL-2958; RPMI 1640 + 10% FBS), Toledo (ATCC, CRL-2631; RPMI 1640 + 10% FBS), and SJCRH30 (ATCC, CRL-2061; RPMI 1640 + 10% FBS) were thawed. Cells were passaged approximately twice, and those in good growth condition (typically passages 4-6) were selected for experiments. The medium was aspirated, and the cells were washed once with 0.25% trypsin (Invitrogen, 25200-072). The waste liquid was discarded, and 3 mL of fresh trypsin was added to the culture flask for digestion. When the cells began to detach, 9 mL of complete medium was added to neutralize the trypsin digestion, and the mixture was gently mixed. The cell suspension was transferred to a centrifuge tube using a pipette and centrifuged at 1000 rpm for 5 minutes. The supernatant was discarded, and 5 mL of medium was added to the centrifuge tube to gently resuspend the cells evenly. The cell concentration was adjusted to 1×10^4/mL-3×10^4/mL using a cell counter (Beckman Coulter, Vi-cellTM XR). The cell suspension was added to a 96-well plate (Corning, 3903) at 100 µL/well. The plate was labeled with details such as cell name, seeding density, and date, and then placed in a CO2 incubator (Thermo, Thermo 3111) overnight. Test compounds were prepared as 20 mM stock solutions in DMSO (Sigma, D4540-1L) and added to the corresponding cell wells using an HPD300 automated dispenser according to the designed layout. The plates were incubated in a 37°C, 5% CO2 incubator for 72 hours. CellTiter-Glo Buffer was thawed at room temperature. The lyophilized CellTiter-Glo substrate was equilibrated to room temperature. The CellTiter-Glo Buffer was added to the CellTiter-Glo substrate and thoroughly mixed. The cell plates were removed and equilibrated to room temperature, and 50 µL of the mixed CellTiter-Glo reagent was added to each well. The plates were protected from light and shaken for 10 minutes, followed by incubation for 10 minutes. The plates were placed in an Enspire reader (luminescence measurement time: 0.5 s) to record luminescence results. The inhibition rate was calculated using the following formula: Inhibition rate (%) = (1 - (RLU_compound - RLU_blank) / (RLU_DMSO - RLU_blank)) × 100%. Dose-response curves were plotted using XLFit to calculate IC50 values. A four-parameter model was used: [fit = (A + ((B - A) / (1 + ((C/x) ^ D)))]. The test results for HeLa cells are shown in Table 1. Table 1: IC50 values of some test compounds against human cervical cancer HeLa cells
row,IC50,Compound
1,≤ 200 nM,C#Cc1cccc2[nH]c3c(c12)CCCC3=O [Compound B68]
2,≤ 200 nM,Cc1noc(-c2cccc3[nH]c4c(c23)CCCC4=O)n1 [Compound B69]
3,≤ 200 nM,Cc1nnc(-c2cccc3[nH]c4c(c23)CCCC4=O)o1 [Compound B70]
4,≤ 200 nM,Cc1nsc(-c2cccc3[nH]c4c(c23)CCCC4=O)n1 [Compound B71]
5,≤ 200 nM,CS(=O)(=O)c1cccc2[nH]c3c(c12)CCCC3=O [Compound B74]
6,≤ 500 nM,NS(=O)(=O)c1cccc2[nH]c3c(c12)CCCC3=O [Compound B75]
7,≤ 200 nM,CN(C)S(=O)(=O)c1cccc2[nH]c3c(c12)CCCC3=O [Compound B76]
8,≤ 500 nM,CS(C)(=O)=Nc1cccc2[nH]c3c(c12)CCCC3=O [Compound B80]
9,≤ 200 nM,CC(=O)c1cccc2[nH]c3c(c12)CCCC3=O [Compound B82]
10,≤ 200 nM,COC(=O)c1cc(F)cc2[nH]c3c(c12)CCCC3=O [Compound B83]
11,≤ 200 nM,COC(=O)c1c(F)ccc2[nH]c3c(c12)CCCC3=O [Compound B85]
12,≤ 200 nM,COC(=O)c1c(C)ccc2[nH]c3c(c12)CCCC3=O [Compound B87]
13,≤ 200 nM,COC(=O)c1c(Cl)ccc2[nH]c3c(c12)CCCC3=O [Compound B89]
14,≤ 200 nM,COC(=O)c1c(OC)ccc2[nH]c3c(c12)CCCC3=O [Compound B91]
15,≤ 500 nM,COc1ccc(Cn2nnc(-c3cccc4[nH]c5c(c34)CCCC5=O)n2)cc1 [Compound B94]
16,≤ 200 nM,O=C1CCCc2c1[nH]c1cccc(C(=O)OC3CCC3)c21 [Compound B95]
17,≤ 200 nM,O=C1CCCc2c1[nH]c1cccc(-c3ccncc3)c21 [Compound B96]
18,≤ 500 nM,Cc1cc(-c2cccc3[nH]c4c(c23)CCCC4=O)ccn1 [Compound B97]
19,≤ 200 nM,Cc1nc(-c2cccc3[nH]c4c(c23)CCCC4=O)no1 [Compound B99]
20,≤ 500 nM,CC(O)c1cccc2[nH]c3c(c12)CCCC3=O (centres unmarked) [Compound B105]
21,≤ 200 nM,CCOC(=O)c1cccc2[nH]c3c(c12)SCCC3=O [Compound B107]

row,IC50,Compound
1,≤ 200 nM,CCOC(=O)c1c(C)ccc2[nH]c3c(c12)CCCC3=O [Compound B117]
2,≤ 200 nM,CCOC(=O)c1c(Cl)ccc2[nH]c3c(c12)CCCC3=O [Compound B118]
3,≤ 200 nM,C#Cc1ccc(COC(=O)c2cccc3[nH]c4c(c23)CCCC4=O)s1 [Compound B120]
4,≤ 500 nM,C#CC1(C(=O)Oc2cccc3[nH]c4c(c23)CCCC4=O)CC1 [Compound B121]
5,≤ 200 nM,CCn1ncc(-c2cccc3[nH]c4c(c23)CCCC4=O)n1 [Compound B123]
6,≤ 200 nM,CC(C)n1ncc(-c2cccc3[nH]c4c(c23)CCCC4=O)n1 [Compound B124]
7,≤ 200 nM,CCC#Cc1cccc2[nH]c3c(c12)CCCC3=O [Compound B126]
8,≤ 200 nM,O=C1CCCc2c1[nH]c1cccc(C(=O)OC3CC(O)C3)c21 (centres unmarked) [Compound B129]
9,≤ 200 nM,O=C1CCCc2c1[nH]c1cccc(C(=O)OC3CCC(O)CC3)c21 (centres unmarked) [Compound B130]
10,≤ 200 nM,COc1ccc2[nH]c3c(c2c1-c1cnn(C)n1)CCCC3=O [Compound B134]
11,≤ 200 nM,O=C1CCCc2c1[nH]c1cccc(C(=O)OC3CC(F)C3)c21 (centres unmarked) [Compound B139]
12,≤ 200 nM,CC1(COC(=O)c2cccc3[nH]c4c(c23)CCCC4=O)COC1 [Compound B140]
13,≤ 200 nM,CC(O)CCC(C)OC(=O)c1cccc2[nH]c3c(c12)CCCC3=O (centres unmarked) [Compound B141]
14,≤ 200 nM,C[C@@H](O)COC(=O)c1cccc2[nH]c3c(c12)CCCC3=O [Compound B147]
15,≤ 200 nM,NC(=O)COC(=O)c1cccc2[nH]c3c(c12)CCCC3=O [Compound B148]
16,≤ 200 nM,O=C1CCCc2c1[nH]c1cccc(C(=O)OC(CO)CO)c21 [Compound B149]
17,≤ 200 nM,C[C@H](O)COC(=O)c1cccc2[nH]c3c(c12)CCCC3=O [Compound B150]
18,≤ 200 nM,C#Cc1ccc2[nH]c3c(c2c1C(=O)OCC)CCCC3=O [Compound B153]
19,≤ 200 nM,Cn1cc(-c2cccc3[nH]c4c(c23)CCCC4=O)cn1 [Compound B154]
20,≤ 200 nM,CCn1cc(-c2cccc3[nH]c4c(c23)CCCC4=O)cn1 [Compound B155]
21,≤ 200 nM,O=C1CCCc2c1[nH]c1cccc(-c3cnn(C(F)F)c3)c21 [Compound B156]

row,IC50,Compound
1,≤ 200 nM,O=C1CCCc2c1[nH]c1cccc(C(=O)Oc3cn[nH]c3)c21 [Compound B160]
2,≤ 200 nM,Cc1cc(COC(=O)c2cccc3[nH]c4c(c23)CCCC4=O)n[nH]1 [Compound B163]
3,≤ 200 nM,Cn1nc2ccccc2c1COC(=O)c1cccc2[nH]c3c(c12)CCCC3=O [Compound B164]
4,≤ 500 nM,O=C1CCCc2c1[nH]c1cccc(C(=O)Oc3cccc4[nH]ncc34)c21 [Compound B166]
5,≤ 200 nM,C=C=Cn1cc(-c2cccc3[nH]c4c(c23)CCCC4=O)cn1 [Compound B173]
6,≤ 500 nM,N#CC1(COC(=O)c2cccc3[nH]c4c(c23)CCCC4=O)CC1 [Compound B175]
7,≤ 200 nM,O=C1CCCc2c1[nH]c1cccc(C(=O)OC3CCC(O)C3)c21 (centres unmarked) [Compound B177]
8,≤ 500 nM,Cc1nn(C)cc1-c1cccc2[nH]c3c(c12)CCCC3=O [Compound B180]
9,≤ 200 nM,O=C1CCCc2c1[nH]c1cccc(-c3cnn(CCO)c3)c21 [Compound B181]
10,≤ 500 nM,O=C1CCCc2c1[nH]c1cccc(C(=O)OC3COCC3O)c21 (centres unmarked) [Compound B186]
11,≤ 500 nM,O=C1CCCc2c1[nH]c1cccc(C(=O)O[C@@H](CO)c3ccccc3)c21 [Compound B189]
12,≤ 200 nM,[2H]C([2H])([2H])n1cc(-c2cccc3[nH]c4c(c23)CCCC4=O)cn1 [Compound B191]
13,≤ 200 nM,O=C1CCCc2c1[nH]c1cccc(N3CC[C@@H](CO)C3)c21 [Compound B193]
14,≤ 200 nM,O=C1CCCc2c1[nH]c1cccc(N3CCO[C@H](CO)C3)c21 [Compound B194]
15,≤ 200 nM,O=C1CCCc2c1[nH]c1cccc(N3CC[C@H](CO)C3)c21 [Compound B196]
16,≤ 200 nM,COC(=O)c1cccc2c1c1c(n2C(C)=O)C(=O)CCC1 [Compound C01]
17,≤ 200 nM,C=CC(=O)n1c2c(c3c(C(=O)OCC)cccc31)CCCC2=O [Compound C03]
18,≤ 200 nM,CCOC(=O)c1cccc2c1c1c(n2C(=O)c2ccccc2)C(=O)CCC1 [Compound C04]
19,≤ 200 nM,CCOCC(=O)n1c2c(c3c(C(=O)OCC)cccc31)CCCC2=O [Compound C14]

row,Compound,IC50
1,[2H]C([2H])([2H])C([2H])([2H])OC(=O)c1cccc2[nH]c3c(c12)CCCC3=O [Compound B116],≤ 200 nM

# Reference: patent EP4711356A1, “TETRAHYDROCARBAZOLE DERIVATIVE, PHARMACEUTICAL COMPOSITION, AND USE THEREOF” (Nain Biotech (Hangzhou) Co., Ltd., priority 2023, dated 2024)
